From patent US9938231B2, “Liquid arylbenzoyl benzoic acid ester derivatives for energy curable compositions” (SUN CHEMICAL CORPORATION, priority 2014, dated 2018)

Experiments:
Assay type in all cases: physicochemical
[1] = Solubility stability of photoinitiator blends; settings: for Behaviour of the solution upon cooling to room temperature: 1:1 mixture with dimethylaminobenzoic acid ethylhexyl ester, dissolved at 50° C.
Description: A 1:1 mixture in weight of 4-phenylbenzoyl benzoic acid ethylhexyl ester and dimethylaminobenzoic acid ethylhexyl ester was transformed into a solution by stirring at room temperature. […] As a comparison experiment, a 1:1 mixture of 4-phenylbenzophenone and dimethylaminobenzoic acid ethylhexyl ester was turned into a solution at elevated temperature of 50° C.

[2] = UV-spectra measurement (absorption maximum, molar extinction coefficient); settings: ethyl acetate; for Molar extinction coefficient: at absorption maximum
Description: Spectra were acquired using a Unicam UV-2 UV/VIS spectrophotometer. All absorption spectra were obtained using 1 cm cuvettes, scanning within the 200-800 nm range. Solutions were prepared in a 100 cm^3 volumetric flask, and if required, subsequently diluted so that a maximum absorbance of less than 2 was obtained. From the absorption the molar extinction coefficient e was calculated in liter·mol^−1·cm^−1.

[3] = Viscosity of the neat ester; settings: at 25° C.
[4] = Solubility in propoxylated pentaerythritol tetraacrylate SR 494 LM (PPTTA); settings: for Solubility in PPTTA: stirred 30 minutes at room temperature
Description: 4-phenylbenzophenone, 4-phenylbenzoyl benzoic acid ethylhexyl ester, and 4-phenylbenzoyl benzoic acid amyl ester were each separately added to the multifunctional acrylate propoxylated pentaerythritol tetraacrylate (SR 494 LM, Sartomer company) (PPTTA) in amounts of 2, 4, 6, and 8 weight % and stirred for 30 minutes at room temperature.

[5] = Solubility in di-pentaerythritol hexaacrylate (DPHA); settings: for Solubility in DPHA: stirred 30 minutes at room temperature
Description: 4-phenylbenzophenone, 4-phenylbenzoyl benzoic acid ethylhexyl ester, and 4-phenylbenzoyl benzoic acid amyl ester were each added separately to the multifunctional acrylate di-pentaerythritol hexaacrylate (DPHA, Miwon Company) in amounts of 2, 4, 6, and 8 weight %, and stirred for 30 minutes at room temperature.

SMILES	Behaviour of the solution upon cooling to room temperature [1]	Molar extinction coefficient [2] [liter · mol^−1 · cm · ^−1]	Absorption maximum [2]	UV-spectroscopy: λ max [2] [nm]	Viscosity [3] [Pa·s]	State of the solution at 5° C. ([1]; 1:1 mixture in weight with dimethylaminobenzoic acid ethylhexyl ester)	Solubility in PPTTA compared with 4-phenyl benzophenone [4]	Solubility in PPTTA ([4]; 2 weight % in PPTTA)	Solubility in PPTTA ([4]; 4 weight % in PPTTA)	Solubility in PPTTA ([4]; 6 weight % in PPTTA)	Solubility in PPTTA ([4]; 8 weight % in PPTTA)	Solubility in DPHA compared with 4-phenyl benzophenone [5]	Solubility in DPHA ([5]; 2 weight % in DPHA)	Solubility in DPHA ([5]; 4 weight % in DPHA)	Solubility in DPHA ([5]; 6 weight % in DPHA)	Solubility in DPHA ([5]; 8 weight % in DPHA)
COC(=O)c1ccccc1C(=O)c1ccc(-c2ccccc2)cc1 [4-phenylbenzoyl benzoic acid methyl ester]	instability and precipitation															
CCCCC(CC)COC(=O)c1ccccc1C(=O)c1ccc(-c2ccc(-c3ccccc3)cc2)cc1 (stereo not shown) [Example 12, 4-Terphenoyl Benzoic Acid Ethylhexyl Ester]		24900	309 (ethyl acetate) nm	309												
CCCCC(CC)COC(=O)c1ccccc1C(=O)c1ccc(-c2ccccc2)cc1 (stereo not shown) [Example 9, 4-Phenylbenzoyl Benzoic Acid Ethyl Hexyl Ester]		20100	287 (ethyl acetate) nm	287	12	stayed liquid	better solubility than 4-phenyl benzophenone	solution	solution	solution	solution	better solubility than 4-phenyl benzophenone	solution	solution	solution	solution
CCCCCOC(=O)c1ccccc1C(=O)c1ccc(-c2ccccc2)cc1 [Example 10, 4-Phenylbenzoyl Benzoic Acid Amyl Ester]				286	13		better solubility than 4-phenyl benzophenone	solution	solution	solution	solution	better solubility than 4-phenyl benzophenone	solution	solution	solution	solution
O=C(c1ccccc1)c1ccc(-c2ccccc2)cc1 [Example 1, 4-phenyl benzophenone, reference compound]	precipitated							solution	hazy	Solid residuals	Solid residuals		solution	solution	Hazy- opaque	Solid residuals
